The term Ki denotes a dissociation constant, usually derived from enzyme kinetics or from competition with a known ligand. The low end stands for tighter binding, the high end for weaker binding.

In series [1] the test system is Somatostatin Receptor (SSTR)-expressing CA20948 rat pancreatic tumors. To be noted: in vivo, iv.
Procedure: (§1) CA20948 rat pancreatic tumor cells, thawed from frozen harvested tumor brei, were implanted intramuscularly in a suspension of 0.05 to 0.1 mL/animal, into the right hind thigh of 6 week old Lewis rats. The tumors were allowed to grow to approximately 0.5 to 2 g, harvested, and tumor brei was used to implant a second, naive set of Lewis rats. Passaging in this fashion was repeated to generate successive generations of tumor-bearing animals. The tumor-bearing animals used for the in vivo studies were usually from the third to fifth passage and carried 0.2 to 2 g tumors.
(§2) For studies of the specificity of radiotracer localization in the tumors, selected animals were given an subcutaneous SSTR-blocking dose (4 mg/kg) of octreotide 30 minutes prior to injection of the radiotracer.
(§3) Third- to fifth-passage CA20948 tumor-bearing Lewis rats were restrained and injected intravenously via the dorsal tail vein with a dose of 0.15-0.20 mCi ^99m Tc-labeled peptide corresponding to 3 to 8 μg peptide in 0.2 to 0.4 mL.
(§4) At selected times, the animals were sacrificed by cervical dislocation and selected necropsy was performed. Harvested tissue samples were weighed and counted along with an aliquot of the injected dose in a gamma well-counter.
The target of series [2] is T1, somatostatin receptor (Rattus norvegicus, UniProt P30680).
T1 construct: endogenous in cells; host or cells: AR42J rat pancreatic tumor cell line (membrane preparation)
The experiment in a line: Inhibition of binding of {125I-Tyr11}somatostatin-14 to AR42J rat pancreatic tumor cell membranes. To be noted: uncomplexed peptide, {125I-Tyr11}somatostatin-14 0.5 nM. The procedure:
The rat pancreatic tumor cell line AR42J which expresses the somatostatin receptor was cultured in Dulbecco's minimal essential media (DMEM) supplemented with 10% fetal bovine serum (FBS) and 8 mM glutamine in a humdified 5% CO2 atmosphere at 37° C. in T-flasks. Harvested cells were homogenized in cold 50 mM Tris-HCl buffer (pH 7.4) and the homogenate then centrifuged at 39,000 g for 10 min at 4° C. Pellets were washed once with buffer and then resuspended in an ice-cold solution of 10 mM Tris-HCl (pH 7.4). Equal aliquots of this cell membrane preparation were incubated with {^125 I-Tyr^11 }somatostatin-14 (at a final concentration of 0.5 nM and 750,000 cpm/mL, at a specific activity of 2000 Ci/mmol, Amersham, Arlington Heights, Ill.) and peptide or peptide-rheniumcomplex at a final concentration of from 10^-11 M to 10^-6 M in a solution of 50 mM HEPES (pH 7.4) containing 1 % bovine serum albumin (BSA), 5 mM MgCl2, Trasylol (200,000 International Units), bacitracin (0.02 mg/mL) and phenylmethylsulfonylfluoride (0.02 mg/mL) for 25min at 30° C. Using a filtration manifold, this mixture was filtered through a polyethyleneimine-washed GC/F filter (Whatman, Maidstone, England), and the residue remaining on the filter washed thrice with 5 mL cold HEPES buffer. The filter and a sample of the filter washings were then counted in a gamma counter. To assess non-specific binding, the assay was performed in the presence of unlabeled somatostatin-14 at 200 nM. Data analysis including Hill plots of the data provided inhibition constants (see Bylund & Yamamura, "Methods of receptor binding", in Methods in Neurotransmitter Receptor Analysis, Yamamura et al., eds., Raven Press: New York, 1990).

Series [3] relates to Somatostatin Receptor (SSTR)-expressing CA20948 rat pancreatic tumors. The experiment in a line: Localization and in vivo biodistribution/imaging of Tc-99m labeled peptides in CA20948 tumor-bearing Lewis rats. As to conditions: 90-minute biodistribution; for T/B (tumor/blood ratio) / T/M / % ID/g Tumor: 99mTc-labeled peptide, i.v.; for % ID/g Tumor: CA20948 tumor-bearing Lewis rats.
Procedure: as §1, §2, §3, §4

In series [4] the test system is SSTR-expressing tumors. The experiment in a line: Clinical trial: scintigraphic imaging of human patients bearing SSTR-expressing tumors with Tc-99m labeled P587. Type of series: in vivo. To be noted: i.v., within 30 minutes of injection. From the text: In a clinical trial, scintigraphic imaging of human patients bearing SSTR-expressing tumors was achieved using the Tc-99m labeled P587 reagent.
A total of 10 patients, four females and six males ranging in age from 27 to 69 years, had been previously diagnosed with growth hormone-secreting pituitary adenoma (4 patients), melanoma (1 subject), medullary thyroid cancer (1 subject), small cell lung carcinoma (SCLC; 1 patient), non-Hodgkin's lymphoma (1 patient) or gastric carcinoid (1 patient). Each of these patients were administered Tc-99m labeled P587 at a dose of 10-22 mCi per 0.2-0.5 mg by intravenous injection. Scintigraphic imaging was them performed as described herein on each patient for 4 hours post-injection.
Gamma camera imaging is started simultaneously with injection. Anterior images were acquired as a dynamic study (10 sec image acquisitions) over the first 10 min, and then as static images at 1, 2, 3 and 4 h post-injection. Anterior images were acquired for 500,000 counts or 20 min (whichever is shorter), at approximately 10-20 min, and at approximately 1, 2, 3 and 4 h post-injection.

Where two headings read alike, the source gives them in different places. Bridge positions count the residues as written; N and C are the ends. Square brackets hold non-standard residues; d marks the D form. Peptide text beside a SMILES is read from it. * marks the point of attachment. X10 = NCCCC[C@H](NC(=O)[C@@H](N)CCCCNC(=O)C*)C(=O)N[C@@H](CS)C(N)=O; X2 = N=C(N)NCCC[C@H](NC(=O)[C@H](CS)NC(=O)CNC(=O)CNC(=O)C*)C(N)=O; X1 = NCCCC[C@H](NC(=O)[C@H](CS)NC(=O)CNC(=O)CNC(=O)C*)C(N)=O; NMeF = CN[C@@H](Cc1ccccc1)C(=O)O; hCys = N[C@@H](CCS)C(=O)O; Acm = CC(=O)NC*

T1 sequence (P30680 whole entry): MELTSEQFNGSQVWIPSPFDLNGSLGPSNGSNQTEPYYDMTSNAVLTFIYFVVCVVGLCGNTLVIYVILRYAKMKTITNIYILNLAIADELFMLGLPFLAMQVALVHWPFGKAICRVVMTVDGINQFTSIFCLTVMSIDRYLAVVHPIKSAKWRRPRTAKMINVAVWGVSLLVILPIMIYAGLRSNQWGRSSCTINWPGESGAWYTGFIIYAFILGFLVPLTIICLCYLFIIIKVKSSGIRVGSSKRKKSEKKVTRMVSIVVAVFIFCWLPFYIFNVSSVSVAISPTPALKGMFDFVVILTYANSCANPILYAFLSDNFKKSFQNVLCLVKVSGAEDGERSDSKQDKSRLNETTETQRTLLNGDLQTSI

For the compound “cyclo.(N-Me)FYWD KV.Hcy(CH2 CO.(ε-K)KC.amide) [Peptide P625]”, in series [1], the “T/B (tumor/blood ratio)” value is recorded as 0.85 and the T/M came to 4.6.
Compound `CC(=O)NCSC[C@H](NC(=O)CNC(=O)[C@H](CSCNC(C)=O)NC(=O)[C@@H]1CSCC(=O)N[C@@H](Cc2ccccc2)C(=O)N[C@@H](Cc2ccccc2)C(=O)N[C@H](Cc2c[nH]c3ccccc23)C(=O)N[C@@H](CCCCN)C(=O)N[C@@H]([C@@H](C)O)C(=O)N[C@@H](Cc2ccccc2)C(=O)N1)C(N)=O` [CH2 CO.FFWD KTFCCAcm GCAcm.amide] ({CH2CO}-FF[dW]KTFCC(Acm)GC(Acm)-NH2; thioether N-7) came in with a Ki in series [2] of 7.5 nM.
Still for that read-out and setting: as for `CC(C)[C@@H]1NC(=O)[C@H](CCCCN)NC(=O)[C@@H](Cc2c[nH]c3ccccc23)NC(=O)[C@H](Cc2ccc(O)cc2)NC(=O)[C@H](Cc2ccccc2)N(C)C(=O)[C@H](CCSCC(=O)NCCCC[C@H](N)C(=O)N[C@@H](CCCCN)C(=O)N[C@@H](CS)C(N)=O)NC1=O` [cyclo.(N-Me)FYWD KV.Hcy(CH2 CO.(ε-K)KC.amide)] (cyclo([NMeF]Y[dW]KV[hCys](X10))), the figure is 2.2 nM.
On to `CC(C)[C@@H]1NC(=O)[C@H](CCCCN)NC(=O)[C@@H](Cc2c[nH]c3ccccc23)NC(=O)[C@H](Cc2ccc(O)cc2)NC(=O)[C@H](Cc2ccccc2)N(C)C(=O)[C@H](CCSCC(=O)NCC(=O)NCC(=O)N[C@@H](CS)C(=O)N[C@@H](CCCNC(=N)N)C(N)=O)NC1=O` (99mTc complex, metal not drawn) [Peptide P617, cyclo(N-methyl)FYWD KV.Hcy.(CH2 CO.GGCR.amide)] (cyclo([NMeF]Y[dW]KV[hCys](X2))), for which, in series [3], the “tumor uptake and tumor/blood ratios (in words)” value was “very high”; the “T/B (tumor/blood ratio)” value is listed as 9.4; the T/M came to 36; the “% ID/g Tumor” value stood at 6.7 % ID/g.
Regarding “cyclo.(N--CH3)FYWD KV.Hcy(CH2 CO.(β-Dap)KCR.amide) [Peptide P832]”, in series [1], the “T/B (tumor/blood ratio)” value was found to be 13 and the T/M is recorded as 37.
As for “cyclo.(N--CH3)FYWD KV.Hcy(CH2 CO.(β-Dap)KCK.amide) [Peptide P829]”, in series [1], the “T/B (tumor/blood ratio)” value was determined as 13 and the T/M is 49.
With “KKKK.NalD.Cpa.YWD KTFT(ε-K)GCDDDD.amide [Peptide P550]”, in series [1], the “T/B (tumor/blood ratio)” value was 0.91 and the T/M is listed as 7.4.
Consider `CC(C)[C@@H]1NC(=O)[C@H](CCCCN)NC(=O)[C@@H](Cc2c[nH]c3ccccc23)NC(=O)[C@H](Cc2ccc(O)cc2)NC(=O)[C@H](Cc2ccccc2)N(C)C(=O)[C@H](CCSCC(=O)NCC(=O)NCC(=O)N[C@@H](CS)C(=O)N[C@@H](CCCCN)C(N)=O)NC1=O` (99mTc complex, metal not drawn) [Peptide P587, cyclo(N-methyl)FYWD KV.Hcy.(CH2 CO.GGCK.amide)] (cyclo([NMeF]Y[dW]KV[hCys](X1))), for which, in series [3], the “tumor uptake and tumor/blood ratios (in words)” value is recorded as “very high”; the “T/B (tumor/blood ratio)” value is recorded as 6.0; the T/M came out at 33; the “% ID/g Tumor” value amounted to 3.4 % ID/g. In addition, in series [4], the “injected dose remaining in the circulation” value is reported as “less than 10%”.
`C[C@@H](O)[C@@H]1NC(=O)[C@H](CCCCN)NC(=O)[C@@H](Cc2c[nH]c3ccccc23)NC(=O)[C@H](Cc2ccccc2)NC(=O)[C@H](Cc2ccccc2)NC(=O)CSC[C@@H](C(=O)NCC(=O)NCC(=O)N[C@@H](CS)C(N)=O)NC(=O)[C@H](Cc2ccccc2)NC1=O` [CH2 CO.FFWD KTFCGGC.amide] ({CH2CO}-FF[dW]KTFCGGC-NH2; thioether N-7): in series [2], the Ki came to 9.4 nM.
